Laboratory results taken from publication PMC8597046, “Use of Mixture Dosing and Nonlinear Mixed Effect Modeling of Eight Environmental Contaminants in Rabbits to Improve Extrapolation Value of Toxicokinetic Data” (Environmental Health Perspectives, 2021).

Columns and labels:
[1] = Estimation of loading and daily maintenance doses and NLME model simulations; set-up: species or system female rabbits; settings: oral; for Computed maintenance dose: daily; for Computed maintenance dose / Computed loading dose: scaled to the targeted CSS of Table 6; for Daily maintenance dose: to maintain serum concentration of 1 ng/mL, daily CL×Css/F; for Daily maintenance dose / Loading dose: DEHP dose for MEHP in serum; for Loading dose: to rapidly attain serum concentration of 1 ng/mL, Vss×Css/F
Description: The ultimate goal of this TK investigation was to compute a dosage regimen that allowed targeted steady-state serum concentrations to be attained rapidly for a planned TK/TD trial on the reprotoxic effect of a mixture of environmental contaminants in female rabbits. […] With that in mind, the loading and the daily maintenance doses of each compound were evaluated using Equations 12 and 13, respectively.
This risk was also the reason why the NLME model was employed to simulate the time development of the amounts of compounds in the central and peripheral compartments following administration of the daily maintenance dose of each compound over the same duration.
The loading and maintenance doses computed to ensure a nominal CSS of 1 ng/mL were scaled to determine the doses to be administrated by oral route to female rabbits to maintain the targeted CSS .

[2] = Chronic exposure: daily oral mixture for 17 wk, steady-state serum concentrations; settings: for concentration at 17 wk: female, New Zealand white (INRA 1777 line), rabbit, in vivo, po
Description: The objective of this preliminary experiment was to check the ability of our approach to determine the loading and maintenance doses of the eight compounds to be administered simultaneously by oral route to reproduce in female rabbits targeted serum concentrations. The experiment was carried out on thirty-two 2-wk old female New Zealand white rabbits (INRA 1777 line) randomly allocated to a treatment and control groups of 16 rabbits weighing 309±45g and 298±62g , respectively. The treated rabbits were orally administrated a mixture of the eight compounds at a dosage corresponding to the sum of the loading and daily maintenance doses followed by daily administrations of the maintenance dose for 17 wk (see the “Estimation of the doses” section). The control group was orally administrated the vehicle for the same duration.
The volume of the maintenance dosing solution ( 1mL/kg ) was weekly adjusted to the mean BW estimated from the known pattern of growth of the INRA 1777 rabbit line. Oral dosing and antemortem blood sampling were performed as previously described.
Blood samples were left to clot for about 20–30 min at ambient temperature and centrifuged for 20 min at 3,000×g at 25°C. The separated serum was stored in glass tubes at −20°C until assayed.

[3] = TK assay, intravenous mixture dosing: serum concentrations and noncompartmental analysis (sparse data); settings: for concentration at 167.92 h: rabbit 8, 167.92 h; for concentration at 671.96 h: rabbit 10, 671.96 h; for concentration at 672 h: rabbit 11, 672.00 h; for concentration at 671.83 h: rabbit 12, 671.83 h; for Serum concentration: IV
Description: The experiment was carried out on thirty 10-wk old female New Zealand white rabbits (INRA 1777 line) weighing 2.37±0.14kg . […] Blood samples were taken at the designated time points post IV and oral administration: 15 min, 30 min, 1 h, 2 h, 4 h, 8 h, 12 h, 24 h, 3 d, 7 d, and 28 d from groups of 3 or 6 rabbits at each sampling time. Each rabbit was sampled 3 times and 3 rabbits were sampled at each sampling time, except at 30 min post administration, when 6 samples were collected to provide a sufficient blood volume for assaying the compounds. The doses and assay time points were selected to allow the calculation of TK parameters (Table 1) based on preliminary TK data. Residual concentrations of the compounds, and their possible evolution over time, were determined by sampling six entirely untreated rabbits during the TK study on the day of drug administrations, then 14 d and 28 d later.
The volume administered was adjusted to the animal’s body weight (BW) recorded the day before.
Intravenous administrations were performed via an indwelling catheter (22G Terumo, 0.9×25mm ) just after its insertion into an ear vein. […] For oral administrations, the mixture of all compounds ( 4mL/kg ) was deposited directly in the mouth of rabbits using a catheter (22G BD Insyte 22G, 0.9×25mm ). Prior to the study, the rabbits had been trained to gradually swallow water and then corn oil.
Blood samples were collected from the auricular artery using a 20 G needle ( 0.9×25mm ) and a dry tube. The first two blood samples were 8–10mL in volume, whereas a large volume (about 20mL ) was obtained antemortem immediately after electrical stunning (95LX rabbit stunner; Burdis), followed by exsanguination.
Serum concentration-time profiles of the different compounds were first analyzed using a noncompartmental approach (NCA) involving a sparse data option. Sparse data methodology consists of calculating TK parameters based on the mean profile of all the subjects in the dataset and is appropriate when a rich data series cannot be obtained, as in the present experiment ([FDA 1999]). The area under the concentration time curve ( AUC0−tlast ) and the area under the first moment curve ( AUMC0−tlast ) from dosing time ( t=0 ) to the time of the last measurable concentration were calculated using the linear trapezoidal rule after IV and oral dosing. The area under the serum concentration time curve from dosing time to infinity ( AUC0−inf ) was obtained by adding to AUC0−tlast the area extrapolated from the time of the last measurable concentration to infinity by dividing the last quantifiable serum concentration by the slope of the terminal phase ( λZ ), as estimated by linear regression using the best fit option of Phoenix®.
The clearance (CL) and apparent clearance (CL_F) were respectively estimated after IV and oral administrations by dividing the administered dose by the AUC0−inf calculated for each analyte.
The terminal half-life (HL) was estimated with Equation 1: (1) HL=0.69315/λZ where λz is the slope of the terminal phase.
The mean residence time (MRT) was estimated using Equation 3: (3) MRT=AUMCiv0−tlast /AUCiv0−tlast , where AUCMiv0−tlast and AUCiv0−tlast are the values of AUMC0−tlast and AUC0−tlast obtained after IV dosing.
The steady-state volume of distribution ( VSS ) was estimated using Equation 4: (4) VSS=CL×MRT, with CL and MRT as defined above.

[4] = female, New Zealand white (INRA 1777 line), rabbit, in vivo, iv
[5] = female, New Zealand white (INRA 1777 line), rabbit, in vivo, iv, VSS, IV mixture dosing, NCA, n=12
[6] = female, New Zealand white (INRA 1777 line), rabbit, in vivo, iv, VZ, IV mixture dosing, NCA, n=12
[7] = female, New Zealand white, rabbit, in vivo, iv, Serum concentration, rabbit 1, 24.03 h
[8] = female, New Zealand white, rabbit, in vivo, iv, Serum concentration, rabbit 2, […]
[9] = female, New Zealand white, rabbit, in vivo, iv, Serum concentration, rabbit 3, […]
[10] = female, New Zealand white, rabbit, in vivo, iv, Serum concentration, rabbit 4, 72.00 h
[11] = female, New Zealand white, rabbit, in vivo, iv, Serum concentration, rabbit 5, 72.03 h
[12] = female, New Zealand white, rabbit, in vivo, iv, Serum concentration, rabbit 6, 71.97 h
[13] = female, New Zealand white, rabbit, in vivo, iv, Serum concentration, rabbit 7, 168.00 h
[14] = female, New Zealand white, rabbit, in vivo, iv, Serum concentration
[15] = female, New Zealand white, rabbit, in vivo, iv, Serum concentration, rabbit 9, 168.00 h

Brc1ccc(Oc2ccc(Br)cc2Br)c(Br)c1 [BDE-47, 2,2′,4,4′-tetrabromodiphenyl ether]
Computed maintenance dose [1]: 1.3 µg/kg
Computed loading dose [1]: 7.5 µg/kg
Daily maintenance dose [1]: 8.4 µg/kg
Loading dose [1]: 47 µg/kg
concentration at 17 wk [2]: 0.16 ± 0.058 ng/mL
AUC(0-inf) [3, 4]: 42.2 µM·h
Cmax [3, 4]: 1820 nM
MRT [3, 4]: 86.9 h
clearance [3, 4]: 3.83 mL/min/kg
half-life [3, 4]: 162 h
Vd [3, 5]: 20.3 L/kg
Vd [3, 6]: 54.8 L/kg
concentration at 24.03 h [3, 7]: 120 nM
concentration at 24 h [3, 8]: 140 nM
concentration at 24 h [3, 9]: 130 nM
concentration at 72 h [3, 10]: 56 nM
concentration at 72.03 h [3, 11]: 63 nM
concentration at 71.97 h [3, 12]: 42 nM
concentration at 168 h [3, 13]: 31 nM
concentration at 167.92 h [3, 14]: 25 nM
concentration at 168 h [3, 15]: 37 nM
concentration at 0.67 h ([3]; female, New Zealand white, rabbit, in vivo, iv, Serum concentration, rabbit 10, 0.67 h): 1990 nM
concentration at 671.96 h [3, 14]: 3.9 nM
concentration at 0.77 h ([3]; female, New Zealand white, rabbit, in vivo, iv, Serum concentration, rabbit 11, 0.77 h): 1770 nM
concentration at 672 h [3, 14]: 5.3 nM
concentration at 0.6 h ([3]; female, New Zealand white, rabbit, in vivo, iv, Serum concentration, rabbit 12, 0.60 h): 1820 nM
concentration at 671.83 h [3, 14]: 2.8 nM

O=S(=O)(c1ccc(O)cc1)c1ccc(O)cc1 [BPS, bisphenol S]
Computed maintenance dose [1]: 122 µg/kg
Computed loading dose [1]: 32 µg/kg
Daily maintenance dose [1]: 122 µg/kg
Loading dose [1]: 32 µg/kg
Mean serum concentration of (unconjugated) BPS, estimated ([2]; estimated from total BPS and 7% unconjugated fraction, targeted CSS 1 ng/mL): 0.98 ng/mL
CL ([3]; IV mixture dosing, NCA, n=12): 72.5 mL/min/kg
MRT ([3]; IV mixture dosing, NCA, n=12): 1.26 h
Serum concentration ([3]; rabbit 1, 0.30 h): 2080 nM
Serum concentration ([3]; rabbit 1, 4.38 h): 25 nM
Serum concentration ([3]; rabbit 1, 24.03 h): < 4 nM
Serum concentration ([3]; rabbit 2, 0.28 h): 4060 nM
Serum concentration ([3]; rabbit 2, 4.05 h): 29 nM
Serum concentration ([3]; rabbit 3, 0.35 h): 3380 nM
Serum concentration ([3]; rabbit 3, 4.05 h): 65 nM
Serum concentration ([3]; rabbit 4, 0.62 h): 1030 nM
Serum concentration ([3]; rabbit 4, 8.33 h): 22 nM
Serum concentration ([3]; rabbit 4, 72.00 h): < 4 nM
Serum concentration ([3]; rabbit 5, 0.75 h): 1230 nM
Serum concentration ([3]; rabbit 5, 8.62 h): 15 nM
Serum concentration ([3]; rabbit 5, 72.03 h): < 4 nM
Serum concentration ([3]; rabbit 6, 0.57 h): 1840 nM
Serum concentration ([3]; rabbit 6, 7.98 h): 22 nM
Serum concentration ([3]; rabbit 6, 71.97 h): < 4 nM
Serum concentration ([3]; rabbit 7, 1.13 h): 370 nM
Serum concentration ([3]; rabbit 7, 11.98 h): 8.5 nM
Serum concentration ([3]; rabbit 8, 1.12 h): 290 nM
Serum concentration ([3]; rabbit 8, 12.02 h): 6 nM
Serum concentration ([3]; rabbit 9, 1.03 h): 410 nM
Serum concentration ([3]; rabbit 9, 11.97 h): 7.4 nM
Serum concentration ([3]; rabbit 11, 2.08 h): 110 nM
Serum concentration ([3]; rabbit 12, 2.08 h): 200 nM
AUC0−inf ([3]; serum, IV mixture dosing, NCA, n=12): 2.41 µM·h
Cmax ([3]; serum, IV mixture dosing, NCA, n=12, doses in Table 2 r3, BPSG after BPS dosing): 4060 nM

O=C(O)C(F)(F)C(F)(F)C(F)(F)C(F)(F)C(F)(F)C(F)(F)C(F)(F)F [PFOA, perfluorooctanoic acid]
Computed maintenance dose [1]: 9.5 µg/kg
Computed loading dose [1]: 10 µg/kg
Daily maintenance dose [1]: 0.18 µg/kg
Loading dose [1]: 0.19 µg/kg
concentration at 17 wk [2]: 43 ± 9.4 ng/mL
AUC(0-inf) [3, 4]: 27.4 µM·h
Cmax [3, 4]: 2330 nM
MRT [3, 4]: 18.7 h
clearance [3, 4]: 0.121 mL/min/kg
half-life [3, 4]: 31.8 h
Vd [3, 5]: 0.135 L/kg
Vd [3, 6]: 0.332 L/kg
concentration at 0.3 h ([3]; female, New Zealand white, rabbit, in vivo, iv, Serum concentration, rabbit 1, 0.30 h): 1870 nM
concentration at 4.38 h ([3]; female, New Zealand white, rabbit, in vivo, iv, Serum concentration, rabbit 1, 4.38 h): 1070 nM
concentration at 24.03 h [3, 7]: 240 nM
concentration at 0.28 h ([3]; female, New Zealand white, rabbit, in vivo, iv, Serum concentration, rabbit 2, 0.28 h): 2100 nM
concentration at 4.05 h ([3]; female, New Zealand white, rabbit, in vivo, iv, Serum concentration, rabbit 2, 4.05 h): 1020 nM
concentration at 24 h [3, 8]: 160 nM
concentration at 0.35 h ([3]; female, New Zealand white, rabbit, in vivo, iv, Serum concentration, rabbit 3, 0.35 h): 2330 nM
concentration at 4.05 h ([3]; female, New Zealand white, rabbit, in vivo, iv, Serum concentration, rabbit 3, 4.05 h): 1450 nM
concentration at 24 h [3, 9]: 290 nM
concentration at 0.62 h ([3]; female, New Zealand white, rabbit, in vivo, iv, Serum concentration, rabbit 4, 0.62 h): 1700 nM
concentration at 72 h [3, 10]: 60 nM
concentration at 0.75 h ([3]; female, New Zealand white, rabbit, in vivo, iv, Serum concentration, rabbit 5, 0.75 h): 1860 nM
concentration at 72.03 h [3, 11]: 34 nM
concentration at 0.57 h ([3]; female, New Zealand white, rabbit, in vivo, iv, Serum concentration, rabbit 6, 0.57 h): 1670 nM
concentration at 71.97 h [3, 12]: 31 nM
concentration at 11.98 h ([3]; female, New Zealand white, rabbit, in vivo, iv, Serum concentration, rabbit 7, 11.98 h): 840 nM
concentration at 168 h [3, 13]: 5.3 nM
concentration at 12.02 h ([3]; female, New Zealand white, rabbit, in vivo, iv, Serum concentration, rabbit 8, 12.02 h): 520 nM
concentration at 167.92 h [3, 14]: 4.3 nM
concentration at 11.97 h ([3]; female, New Zealand white, rabbit, in vivo, iv, Serum concentration, rabbit 9, 11.97 h): 590 nM
concentration at 168 h [3, 15]: 3 nM
concentration at 671.96 h [3, 14]: < 0.24 nM
concentration at 672 h [3, 14]: < 0.24 nM
concentration at 671.83 h [3, 14]: < 0.24 nM
